“And” between values parts separate entries of the source, which are not always exact repeats. Identical values can stand only once. Toxic doses and inconclusive results are not listed. Rule as the data show it: active = T/C of 150% or more; inactive = T/C below 125%.
System: L1210 leukemia ip in BDF1 mice, survival T/C
Test: NCI In Vivo Anticancer Drug Screen. Data for tumor model L1210 Leukemia (intraperitoneal) in B6D2F1 (BDF1) mice
Details: endpoint: mean survival time, higher = longer survival
How it was run: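 Antitumor effect is assessed in tumor-bearing animals. Survival in the compound arm is compared with a vehicle-dosed control arm and expressed as their quotient.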

[1] = dose: 50.0 mg/kg/injection, schedule: Q01DX009 (ip), vehicle: saline
[2] = dose: 100.0 mg/kg/injection, schedule: Q01DX009 (ip), vehicle: saline
[3] = dose: 100.0 mg/kg/injection, schedule: Q04DX003 (ip), vehicle: saline
[4] = dose: 50.0 mg/kg/injection, schedule: Q01DX009 (ip), vehicle: saline with Tween-80
[5] = dose: 100.0 mg/kg/injection, schedule: Q01DX009 (ip), vehicle: saline with Tween-80
[6] = dose: 200.0 mg/kg/injection, schedule: Q01DX009 (ip), vehicle: saline
[7] = dose: 100.0 mg/kg/injection, schedule: Q01DX009 (ip), vehicle: Klucel (hydroxypropylcellulose) (HPC)
[8] = dose: 200.0 mg/kg/injection, schedule: Q01DX009 (ip), vehicle: Klucel (hydroxypropylcellulose) (HPC)
[9] = dose: 200.0 mg/kg/injection, schedule: Q04DX003 (ip), vehicle: saline
[10] = dose: 400.0 mg/kg/injection, schedule: Q01DX009 (ip), vehicle: Klucel (hydroxypropylcellulose) (HPC)
[11] = dose: 400.0 mg/kg/injection, schedule: Q04DX003 (ip), vehicle: saline
[12] = dose: 100.0 mg/kg/injection, schedule: Q04DX003 (ip), vehicle: Klucel (hydroxypropylcellulose) (HPC)
[13] = dose: 200.0 mg/kg/injection, schedule: Q04DX003 (ip), vehicle: Klucel (hydroxypropylcellulose) (HPC)
[14] = dose: 400.0 mg/kg/injection, schedule: Q04DX003 (ip), vehicle: Klucel (hydroxypropylcellulose) (HPC)
[15] = dose: 100.0 mg/kg/injection, schedule: Q04DX003 (ip), vehicle: saline with Tween-80
[16] = dose: 200.0 mg/kg/injection, schedule: Q04DX003 (ip), vehicle: saline with Tween-80
[17] = dose: 400.0 mg/kg/injection, schedule: Q04DX003 (ip), vehicle: saline with Tween-80
[18] = dose: 50.0 mg/kg/injection, schedule: Q01DX001 (ip), vehicle: carboxymethylcellulose (CMC)
[19] = dose: 100.0 mg/kg/injection, schedule: Q01DX001 (ip), vehicle: carboxymethylcellulose (CMC)
[20] = dose: 200.0 mg/kg/injection, schedule: Q01DX001 (ip), vehicle: carboxymethylcellulose (CMC)
[21] = dose: 100.0 mg/kg/injection, schedule: Q01DX001 (ip), vehicle: saline
[22] = dose: 200.0 mg/kg/injection, schedule: Q01DX001 (ip), vehicle: saline
[23] = dose: 400.0 mg/kg/injection, schedule: Q01DX001 (ip), vehicle: saline
[24] = dose: 25.0 mg/kg/injection, schedule: Q01DX009 (ip), vehicle: saline with Tween-80
[25] = dose: 400.0 mg/kg/injection, schedule: Q01DX001 (ip), vehicle: carboxymethylcellulose (CMC)
[26] = dose: 100.0 mg/kg/injection, schedule: Q04DX002 (ip), vehicle: saline with Tween-80

Measured: T/C

CN(C)CCO/C(CN(C)C)=C(\C#N)c1ccccc1
inactive: dose: 15.0 mg/kg/injection, schedule: Q01DX001 (ip), vehicle: carboxymethylcellulose (CMC) 92 % of control | dose: 30.0 mg/kg/injection, schedule: Q01DX001 (ip), vehicle: carboxymethylcellulose (CMC) 95 % of control

CNC/C=C/CNC
inactive: dose: 25.0 mg/kg/injection, schedule: Q01DX009 (ip), vehicle: saline 97 % of control | dose: 25.0 mg/kg/injection, schedule: Q04DX003 (ip), vehicle: saline 102 % of control | [1] 90 % of control | dose: 50.0 mg/kg/injection, schedule: Q04DX003 (ip), vehicle: saline 93 % of control | [2] 98 % of control | [3] 98 % of control and 99 % of control

CCCCCCN(/N=C\C(=O)O)C(N)=O
inactive: [4] 103 % of control | [5] 88 % of control | dose: 200.0 mg/kg/injection, schedule: Q01DX009 (ip), vehicle: saline with Tween-80 98 % of control

CC(C)(O)C[N+](=O)[O-]
inactive: [1] 88 % of control | [2] 88 % of control | [6] 88 % of control

CCCCCCCCCc1c(C)[nH]c2ccccc2c1=O
inactive: [7] 94 % of control | [3] 100 % of control | [8] 86 % of control | [9] 104 % of control | [10] 86 % of control | [11] 100 % of control

Clc1ccccc1C(c1ccc(-c2ccccc2)cc1)(c1ccc(-c2ccccc2)cc1)n1ccnc1
inactive: [12] 95 % of control | [13] 104 % of control | [14] 90 % of control

OCC1(CO)CCCC2(COC3(CCCCC3)OC2)C1
inactive: [12] 98 % of control | [13] 94 % of control | [14] 94 % of control

CCCNC(=O)C1C2CC3OC(=O)C1C3C2 (configuration not stated)
inactive: [15] 90 % of control | [3] 98 % of control | [16] 95 % of control | [9] 91 % of control | [17] 93 % of control | [11] 102 % of control

Cc1ccc(S(=O)(=O)OCCN(CCOS(=O)(=O)c2ccc(C)cc2)c2ccc(C=O)cc2)cc1
inactive: [18] 114 % of control | [19] 102 % of control and 120 % of control | dose: 175.0 mg/kg/injection, schedule: Q01DX001 (ip), vehicle: carboxymethylcellulose (CMC) 121 % of control | [20] 98 % of control and 122 % of control | dose: 265.0 mg/kg/injection, schedule: Q01DX001 (ip), vehicle: carboxymethylcellulose (CMC) 116 % of control | dose: 600.0 mg/kg/injection, schedule: Q01DX001 (ip), vehicle: carboxymethylcellulose (CMC) 115 % of control

c1ccc(C2=C(c3ccccc3)N=c3ccccc3=c3ccccc3=N2)cc1
inactive: [7] 98 % of control | [12] 94 % of control | [8] 94 % of control | [13] 94 % of control | [10] 94 % of control | [14] 102 % of control

CCC(C(=O)O)=C1CCCCC1
inactive: [21] 95 % of control | [22] 95 % of control | [23] 103 % of control

N/C(=N\O)c1c(Br)n(C2OC(CO)C(O)C2O)c2ncnc(N)c12 (configuration not stated)
inactive: [21] 98 % of control | [22] 97 % of control | [23] 106 % of control

CCCCn1c(O)c(C=N)c(=O)n(CCCC)c1=O
inactive: [24] 101 % of control | [4] 90 % of control | [5] 101 % of control and 86 % of control | [15] 89 % of control | [16] 94 % of control | [17] 89 % of control

CCOC(=O)Nc1c(O)cccc1N1CCOCC1
inactive: dose: 100.0 mg/kg/injection, schedule: Q04DX002 (ip), vehicle: Klucel (hydroxypropylcellulose) (HPC) 101 % of control | dose: 200.0 mg/kg/injection, schedule: Q04DX002 (ip), vehicle: Klucel (hydroxypropylcellulose) (HPC) 101 % of control | dose: 400.0 mg/kg/injection, schedule: Q04DX002 (ip), vehicle: Klucel (hydroxypropylcellulose) (HPC) 104 % of control

CCc1ccc(CC(=S)N2CCOCC2)cc1
inactive: [19] 101 % of control | [20] 95 % of control | [25] 109 % of control

C[n+]1c(-c2cc(C(F)(F)F)cc(C(F)(F)F)c2)c2cc(N)ccc2c2ccc(N)cc21
inactive: dose: 100.0 mg/kg/injection, schedule: Q01DX005 (ip), vehicle: water 97 % of control

Cc1cc(C)c(C(=O)C2CC=CCC2c2c(C)cc(C)cc2C)c(C)c1 (configuration not stated)
inactive: [12] 101 % of control | [13] 94 % of control | [14] 95 % of control

CCOC(=O)C1=NN(c2ccccc2)C(=O)C1N=Nc1ccc(S(=O)(=O)Nc2nnc(C)s2)cc1 (configuration not stated)
inactive: [21] 110 % of control | [22] 105 % of control | [23] 98 % of control

O=C(O)CCSc1ccccc1
inactive: dose: 40.0 mg/kg/injection, schedule: Q01DX009 (ip), vehicle: saline with Tween-80 96 % of control | dose: 75.0 mg/kg/injection, schedule: Q01DX009 (ip), vehicle: saline with Tween-80 88 % of control | dose: 75.0 mg/kg/injection, schedule: Q04DX003 (ip), vehicle: saline 96 % of control | dose: 150.0 mg/kg/injection, schedule: Q01DX009 (ip), vehicle: saline with Tween-80 101 % of control

CC(=O)NC(CCSCc1c2ccccc2c(C)c2ccccc12)C(=O)O (configuration not stated)
inactive: [4] 86 % of control | [5] 98 % of control | [15] 95 % of control | [16] 95 % of control

Cc1cccc(C)c1NS(=O)(=O)c1ccccc1
inactive: [7] 104 % of control | [12] 101 % of control | [8] 101 % of control | [13] 103 % of control | [10] 98 % of control | [14] 104 % of control

CCOC(=O)/C(Br)=C/SCCN
inactive: [2] 97 % of control | [6] 92 % of control | dose: 400.0 mg/kg/injection, schedule: Q01DX009 (ip), vehicle: saline 91 % of control

CCCCCCCCC(=O)CCCCC
inactive: [2] 92 % of control | [3] 101 % of control | [6] 94 % of control | [9] 105 % of control | [11] 100 % of control

CCCCN1C(=O)N(c2ccc(OCC)cc2)C2N(CCCC)C1C(C)(C)C2(C)C (configuration not stated)
inactive: dose: 25.0 mg/kg/injection, schedule: Q04DX002 (ip), vehicle: saline with Tween-80 103 % of control | dose: 50.0 mg/kg/injection, schedule: Q04DX002 (ip), vehicle: saline with Tween-80 118 % of control | [26] 122 % of control

NC(=O)n1ncnc1N
inactive: [18] 110 % of control | [19] 101 % of control | [15] 96 % of control | [20] 104 % of control | [16] 97 % of control | [25] 104 % of control | [17] 105 % of control

CC(=O)N(C)c1ccc(NC(=S)NC(=O)c2cccc([N+](=O)[O-])c2)cc1
inactive: [24] 97 % of control and 109 % of control | [4] 98 % of control and 108 % of control | dose: 100.0 mg/kg/injection, schedule: Q01DX001 (ip), vehicle: saline with Tween-80 97 % of control | dose: 100.0 mg/kg/injection, schedule: Q04DX002 (ip), vehicle: saline 93 % of control and 101 % of control | dose: 200.0 mg/kg/injection, schedule: Q01DX001 (ip), vehicle: saline with Tween-80 92 % of control | dose: 200.0 mg/kg/injection, schedule: Q04DX002 (ip), vehicle: saline 96 % of control and 97 % of control | dose: 400.0 mg/kg/injection, schedule: Q01DX001 (ip), vehicle: saline with Tween-80 92 % of control | dose: 400.0 mg/kg/injection, schedule: Q01DX009 (ip), vehicle: saline with Tween-80 93 % of control and 105 % of control | dose: 400.0 mg/kg/injection, schedule: Q04DX002 (ip), vehicle: saline 101 % of control and 104 % of control

COc1cc(C=Nc2ccc(C)c(Cl)c2)ccc1OC(=O)c1ccccc1
inactive: [26] 96 % of control | dose: 200.0 mg/kg/injection, schedule: Q04DX002 (ip), vehicle: saline with Tween-80 93 % of control | dose: 400.0 mg/kg/injection, schedule: Q04DX002 (ip), vehicle: saline with Tween-80 104 % of control

COc1ccc2c(C)c(Br)sc2c1
inactive: [19] 89 % of control | [20] 94 % of control | [25] 94 % of control

CCC1CCC(N)CC1 (configuration not stated)
inactive: dose: 75.0 mg/kg/injection, schedule: Q01DX001 (ip), vehicle: saline 100 % of control

From PubChem BioAssay AID248 (DTP/NCI, 2004)
